From ChEMBL document CHEMBL1150752, “Inhibition of cow's milk xanthine oxidase by flavonoids” (J Nat Prod, 1988)

target: Xanthine dehydrogenase/oxidase (Bos taurus, UniProt P80457); assay: Inhibition of cow milk xanthine oxidase at 50 ug/mL; settings: cattle
Sequence (P80457 whole entry): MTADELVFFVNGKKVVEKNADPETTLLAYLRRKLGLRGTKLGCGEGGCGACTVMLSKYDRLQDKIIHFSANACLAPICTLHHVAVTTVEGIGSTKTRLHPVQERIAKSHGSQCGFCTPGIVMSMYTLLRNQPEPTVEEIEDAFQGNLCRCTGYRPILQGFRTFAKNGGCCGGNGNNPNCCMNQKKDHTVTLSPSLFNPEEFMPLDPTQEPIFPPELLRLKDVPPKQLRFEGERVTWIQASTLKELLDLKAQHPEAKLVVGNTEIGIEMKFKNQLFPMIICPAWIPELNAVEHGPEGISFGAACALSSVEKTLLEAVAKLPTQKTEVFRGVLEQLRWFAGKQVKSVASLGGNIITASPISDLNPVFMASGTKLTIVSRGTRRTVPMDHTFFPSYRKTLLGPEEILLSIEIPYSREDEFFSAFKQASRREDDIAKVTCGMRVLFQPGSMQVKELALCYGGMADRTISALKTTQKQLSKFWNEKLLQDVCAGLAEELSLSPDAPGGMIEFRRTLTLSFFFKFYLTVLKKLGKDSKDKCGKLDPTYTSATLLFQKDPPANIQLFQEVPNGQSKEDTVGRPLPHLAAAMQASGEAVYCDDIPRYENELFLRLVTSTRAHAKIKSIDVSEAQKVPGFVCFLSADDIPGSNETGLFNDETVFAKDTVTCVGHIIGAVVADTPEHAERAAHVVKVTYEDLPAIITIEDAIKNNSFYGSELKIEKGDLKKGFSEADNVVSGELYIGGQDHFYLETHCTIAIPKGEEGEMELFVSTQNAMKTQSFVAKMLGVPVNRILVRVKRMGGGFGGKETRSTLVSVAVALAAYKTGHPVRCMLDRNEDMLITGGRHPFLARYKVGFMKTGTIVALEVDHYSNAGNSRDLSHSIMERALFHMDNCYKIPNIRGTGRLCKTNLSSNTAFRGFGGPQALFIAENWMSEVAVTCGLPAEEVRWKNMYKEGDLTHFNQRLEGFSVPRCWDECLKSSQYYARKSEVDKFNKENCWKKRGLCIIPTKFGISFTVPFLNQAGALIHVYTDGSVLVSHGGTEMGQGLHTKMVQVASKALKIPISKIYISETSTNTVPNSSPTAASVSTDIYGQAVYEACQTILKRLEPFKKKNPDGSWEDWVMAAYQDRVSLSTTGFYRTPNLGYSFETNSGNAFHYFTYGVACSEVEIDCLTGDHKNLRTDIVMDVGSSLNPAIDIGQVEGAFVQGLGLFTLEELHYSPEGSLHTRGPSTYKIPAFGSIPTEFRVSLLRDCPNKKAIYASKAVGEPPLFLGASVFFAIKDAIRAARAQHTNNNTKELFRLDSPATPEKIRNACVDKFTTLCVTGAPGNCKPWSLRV

| SMILES | inhibition at 50 µg/mL |
| --- | --- |
| COc1ccc(-c2cc(=O)c3c(O)c(OC)c(O)cc3o2)cc1 [PECTOLINARIGENIN] | 32.1% |
| COc1cc(-c2oc3cc(O)cc(O)c3c(=O)c2O[C@@H]2O[C@H](CO[C@@H]3O[C@@H](C)[C@H](O)[C@@H](O)[C@H]3O)[C@@H](O)[C@H](O)[C@H]2O)ccc1O [NARCISSIN] | 22.2% |
| O=C1C[C@@H](c2ccc(O)cc2)Oc2cc(O[C@@H]3O[C@H](CO)[C@@H](O)[C@H](O)[C@H]3O)cc(O)c21 [PRUNIN] | 4.2% |
| C[C@@H]1O[C@@H](O[C@H]2[C@H](Oc3cc(O)c4c(=O)cc(-c5ccc(O)cc5)oc4c3)O[C@H](CO)[C@@H](O)[C@@H]2O)[C@H](O)[C@H](O)[C@H]1O [RHOIFOLIN] | 12.9% |
| CC(C)=CCc1c(O[C@@H]2O[C@H](CO)[C@@H](O)[C@H](O)[C@H]2O)cc(O)c2c1O[C@H](c1ccc(O)cc1)[C@@H](O)C2=O [PHELLAMURIN] | 0% |
| O=C(O)[C@H]1O[C@@H](Oc2cc3oc(-c4ccc(O)cc4)cc(=O)c3c(O)c2O)[C@H](O)[C@@H](O)[C@@H]1O [SCUTELLARIN] | 16.6% |
| O=c1c(O[C@@H]2O[C@@H](CO)[C@H](O)[C@H]2O)c(-c2ccc(O)c(O)c2)oc2cc(O)cc(O)c12 [AVICULARIN] | 30.8% |
| O=c1cc(-c2ccc(O)c(O)c2)oc2c([C@@H]3O[C@H](CO)[C@@H](O)[C@H](O)[C@H]3O)c(O)cc(O)c12 [ORIENTIN] | 15.3% |
| O=c1c(O)c(-c2ccc(O)c(O)c2)oc2cc(O[C@@H]3O[C@H](CO)[C@@H](O)[C@H](O)[C@H]3O)cc(O)c12 [QUERCIMERITRIN] | 0% |
| COc1cc(-c2oc3cc(O)cc(O)c3c(=O)c2O)ccc1O [ISORHAMNETIN] | 49% |
| COc1ccc(-c2coc3cc(O)c(OC)c(O)c3c2=O)cc1O [IRISTECTORIGENIN A] | 0% |
| COc1cc2oc(-c3ccc(O[C@@H]4O[C@H](CO)[C@@H](O)[C@H](O)[C@H]4O)c(O)c3)cc(=O)c2c(O)c1OC | 0% |
| COc1ccc(-c2cc(=O)c3c(O)cc(O)c(-c4cc(-c5cc(=O)c6c(O)cc(OC)cc6o5)ccc4OC)c3o2)cc1 [SCIADOPITISIN] | 0% |
| COc1ccc(-c2cc(=O)c3c(O)cc(O[C@@H]4O[C@H](CO)[C@@H](O)[C@H](O)[C@H]4O)cc3o2)cc1 [TILIANINE] | 0% |
| O=c1c(O)c(-c2ccc(O)cc2)oc2cc(O[C@@H]3O[C@H](CO)[C@@H](O)[C@H](O)[C@H]3O)cc(O)c12 | 0% |
| CC(=O)Oc1ccc(-c2cc(=O)c3c(OC(C)=O)c(OC(C)=O)c(OC(C)=O)cc3o2)cc1 | 0% |
| O=c1c(-c2ccc(O)cc2)coc2cc(O[C@@H]3O[C@H](CO)[C@@H](O)[C@H](O)[C@H]3O)cc(O)c12 [GENISTIN] | 0.8% |
| COc1ccc(-c2cc(=O)c3c(O)cc(O[C@@H]4O[C@H](CO[C@@H]5OC[C@@H](O)[C@@H](O)[C@@H]5O)[C@@H](O)[C@H](O)[C@H]4O)cc3o2)cc1O | 30.5% |
| COc1ccc(-c2cc(=O)c3c(O)c([C@@H]4O[C@H](CO)[C@@H](O)[C@H](O)[C@H]4O)c(OC)cc3o2)cc1 [EMBIGENIN] | 33.5% |
| O=c1c(O[C@@H]2O[C@H](CO)[C@H](O)[C@H](O)[C@H]2O)c(-c2ccc(O)cc2)oc2cc(O)cc(O)c12 [TRIFOLIN] | 16.1% |
| O=c1c(-c2ccc(O)cc2)coc2cc(O)ccc12 [DAIDZEIN] | 0% |
| COc1cc(-c2coc3cc4c(c(OC)c3c2=O)OCO4)cc(OC)c1OC [IRISFLORENTIN] | 0% |
| COc1c2c(cc3occ(-c4ccc(O)cc4)c(=O)c13)OCO2 [IRISOLONE] | 0% |
| O=c1cc(-c2ccc(O)c(O)c2)oc2cc(O)c([C@@H]3O[C@H](CO)[C@@H](O)[C@H](O)[C@H]3O)c(O)c12 [ISOORIENTIN] | 25.2% |

Next, values leading:

| inhibition at 50 µg/mL | SMILES |
| --- | --- |
| 18% | O=C1C[C@@H](c2ccc(O[C@@H]3O[C@H](CO)[C@@H](O)[C@H](O)[C@H]3O)cc2)Oc2cc(O)ccc21 [LIQUIRITIN] |
| 100% | O=C1C[C@@H](c2ccc(O)cc2)Oc2cc(O)ccc21 [LIQUIRTIGENIN] |
| 0% | COc1c(O[C@@H]2O[C@H](CO)[C@@H](O)[C@H](O)[C@H]2O)cc2occ(-c3ccc(O)cc3)c(=O)c2c1O [TECTORIDIN] |
| 47.7% | CC(=O)Oc1cc(OC(C)=O)c2c(=O)cc(-c3ccc(OC(C)=O)c(OC(C)=O)c3)oc2c1 |
| 0% | COc1cc(-c2cc(=O)c3c(O)c(OC)c(OC)cc3o2)ccc1O[C@@H]1O[C@H](CO)[C@@H](O)[C@H](O)[C@H]1O |
| 0% | O=c1cc(-c2ccc(O)c(O)c2)oc2cc(O[C@@H]3O[C@H](CO)[C@@H](O)[C@H](O)[C@H]3O)c([C@@H]3O[C@H](CO)[C@@H](O)[C@H](O)[C@H]3O)c(O)c12 |
| 28.9% | COc1ccc(-c2cc(=O)c3c(O)cc(O[C@@H]4O[C@H](CO)[C@@H](O)[C@H](O)[C@H]4O)cc3o2)cc1O |
| 0.3% | COc1cc(-c2cc(=O)c3c(O)cc(O[C@H]4O[C@@H](C(=O)O)[C@H](O)[C@@H](O)[C@@H]4O)cc3o2)ccc1O |
| 0% | C[C@@H]1O[C@@H](O[C@H]2C(=O)c3c(O)cc(O)cc3O[C@@H]2c2ccc(O)c(O)c2)[C@H](O)[C@H](O)[C@H]1O [ASTILBIN] |
| 0% | COc1cc(-c2coc3cc(O)c(OC)c(O)c3c2=O)cc(O)c1OC [IRIGENIN] |
| 1% | COc1cc(-c2cc(=O)c3c(O)c(OC)c(OC)cc3o2)ccc1O [CIRSILENEOL] |
| 0% | COc1cc2oc(-c3ccc(O)cc3)cc(=O)c2c(O)c1OC [CIRSIMARITIN] |
| 15.4% | O=c1cc(-c2ccccc2)oc2ccccc12 [FLAVONE] |
| 47.8% | O=C1C[C@@H](c2ccc(O)c(O)c2)Oc2cc(O)cc(O)c21 [ERIODICTYOL] |
| 36.5% | O=C(O)[C@H]1O[C@@H](Oc2c(-c3ccc(O)c(O)c3)oc3cc(O)cc(O)c3c2=O)[C@H](O)[C@@H](O)[C@@H]1O [QUERCETIN GLUCURONIDE] |
| 11.5% | COc1ccc(-c2cc(=O)c3c(O)c(OC)c(O[C@@H]4O[C@H](CO[C@@H]5O[C@@H](C)[C@H](O)[C@@H](O)[C@H]5O)[C@@H](O)[C@H](O)[C@H]4O)cc3o2)cc1 [PECTOLINARIN] |
| 12.2% | COc1cc2oc(-c3ccc(O[C@@H]4O[C@H](CO)[C@@H](O)[C@H](O)[C@H]4O)cc3)cc(=O)c2c(O)c1OC [CIRSIMARIN] |
| 17.8% | O=C1c2c(O)cc(O)cc2O[C@H](c2ccc(O)c(O)c2)[C@H]1O [(+)-TAXIFOLIN] |
| 20.1% | C[C@@H]1O[C@@H](O[C@H]2[C@H](Oc3cc(O)c4c(=O)cc(-c5ccc(O)c(O)c5)oc4c3)O[C@H](CO)[C@@H](O)[C@@H]2O)[C@H](O)[C@H](O)[C@H]1O [LONICERIN] |
| 61.5% | COc1cc(-c2cc(=O)c3c(O)cc(O)cc3o2)ccc1O [CHRYSOERIOL] |
| 24.9% | COc1cc2oc(-c3ccc(O)cc3)cc(=O)c2c(O)c1[C@@H]1O[C@H](CO)[C@@H](O)[C@H](O)[C@H]1O [SWERTISIN] |
| 13.9% | O=c1cc(-c2ccc(O)cc2)oc2cc(O[C@@H]3O[C@H](CO)[C@@H](O)[C@H](O)[C@H]3O)cc(O)c12 [APIGETRIN] |
